The record followed here is publication PMC7224104 (Molecular Diversity, 2020).

The experiment deals with T1, porcine liver COMT (Sus scrofa, UniProt Q99028).
T1 sequence (Q99028 1-186): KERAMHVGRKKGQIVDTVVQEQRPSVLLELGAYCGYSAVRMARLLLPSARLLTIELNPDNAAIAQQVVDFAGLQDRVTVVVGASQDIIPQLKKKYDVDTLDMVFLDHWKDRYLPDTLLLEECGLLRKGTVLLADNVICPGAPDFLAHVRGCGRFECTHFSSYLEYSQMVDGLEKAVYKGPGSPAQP
The experiment is described as follows: biochemical.
By IC50 is commonly meant the midpoint of a concentration-inhibition curve. Low readings indicate inhibition by little substance, high ones a need for much substance. For the compound `Cc1c(O)c(=O)ccn1-c1ccccc1` [Compound 1, 3-Hydroxy-2-methyl-1-phenylpyridin-4-one], the 50% inhibitory concentration (IC50) amounted to 10.9 ± 1.06 µM. Under `Cc1c(O)c(=O)ccn1CCCCc1ccccc1` [Compound 5, 3-Hydroxy-2-methyl-1-(4-phenylbutyl)pyridin-4-one] stands 9.05 ± 1.25 µM; under `Cc1c(O)c(=O)ccn1CCCc1ccccc1` [Compound 4, 3-Hydroxy-2-methyl-1-(3-phenylpropyl)pyridin-4-one], 18.4 ± 0.974 µM; under `Cc1c(O)c(=O)ccn1-c1cccc(Cl)c1` [Compound 8, 1-(3-Chlorophenyl)-3-hydroxy-2-methylpyridin-4-one], 11.2 ± 1.01 µM.

Consider `Cc1ccc(Cn2ccc(=O)c(O)c2C)cc1` [Compound 10, 3-Hydroxy-2-methyl-1-(4-methylbenzyl)pyridin-4-one], for which the IC50 came to 5.76 ± 0.664 µM.

For `Cc1c(O)c(=O)ccn1Cc1ccccc1` [Compound 2, 1-Benzyl-3-hydroxy-2-methylpyridin-4-one], the IC50 stood at 4.55 ± 0.545 µM.

The compound `Cc1c(O)c(=O)ccn1-c1ccc(Cl)cc1` [Compound 9, 1-(4-Chlorophenyl)-3-hydroxy-2-methylpyridin-4-one] had a concentration for half-maximal inhibition (IC50) of 9.31 ± 2.94 µM.

`Cc1c(O)c(=O)ccn1C1CCCC1` [Compound 7, 1-Cyclopentyl-3-hydroxy-2-methylpyridin-4-one] returned an IC50 of 19.8 ± 5.86 µM. Under `Cc1ccc(C(=O)c2cc(O)c(O)c([N+](=O)[O-])c2)cc1` [Tolcapone, reference compound] stands 0.0068 µM; under `Cc1c(O)c(=O)ccn1CCc1ccccc1` [Compound 3, 3-Hydroxy-2-methyl-1-(2-phenylethyl)pyridin-4-one], 15 ± 2.1 µM. For the compound `Cc1c(O)c(=O)ccn1C1CCCCC1` [Compound 6, 1-Cyclohexyl-3-hydroxy-2-methylpyridin-4-one], the IC50 stood at 12.2 ± 3.06 µM.
